The NIST ThermoML archive (doi:10.1016/j.tca.2018.06.008)
± gives the expanded uncertainty stated by the source.

Settings: 101.33 kPa, Liquid, Hot disk method

Row | SMILES | thermal conductivity (298.15 K) | thermal conductivity (303.15 K) | thermal conductivity (308.15 K) | thermal conductivity (313.15 K) | thermal conductivity (318.15 K) | thermal conductivity (323.15 K)
1 | OCCO [1,2-ethanediol] | 0.2514 ± 0.0074 W/m/K | 0.2535 ± 0.0061 W/m/K | 0.2551 ± 0.012 W/m/K | 0.2559 ± 0.0076 W/m/K | 0.2568 ± 0.011 W/m/K | 0.2579 ± 0.011 W/m/K
2 | O [water] | 0.6132 ± 0.011 W/m/K | 0.6201 ± 0.012 W/m/K | 0.6249 ± 0.012 W/m/K | 0.6302 ± 0.013 W/m/K | 0.6368 ± 0.011 W/m/K | 0.6427 ± 0.014 W/m/K
